From patent US9682071B2, “Methods of improving microvascular integrity” (INTERMUNE, INC., priority 2013, dated 2017)

Tested on: trachea allograft mouse model of acute transplant rejection
Test: murine orthotopic tracheal transplant model (allograft rejection)
Assay type: in vivo
Settings: for tissue oxygenation (pO2): pirfenidone-treated allografted mice vs untreated allografted controls, over time post-transplantation (FIG. 3), pO2 in mm Hg
Method: Pirfenidone was tested in a murine orthotopic tracheal transplant model, as generally described in Babu et al., J Clin Invest. 2007; 117(12):3774-3785. In this model in which allograft rejection occurs, typically perfusion ceases after a fixed period of time which is highly reliable (10 days). […] Perfusion is later restored on rejecting allografts as recipient-derived vessels neovascularize the transplant on d28. In contrast, mice receiving syngeneic (identical) grafts maintain tissue oxygenation at approximately the same levels throughout. Magnified images of the microvasculature, obtained after i.v. injection of FITC-conjugated (green) tomato lectin to bind and identify perfused vasculature, are shown in FIG. 1B.

Cc1ccc(=O)n(-c2ccccc2)c1 [Pirfenidone, 5-methyl-1-phenyl-2-(1H)-pyridone]
fibrosis (allograft recipients fed pirfenidone in their chow): significantly attenuated
perfused vasculature (FITC-conjugated tomato lectin images) (allograft recipients fed pirfenidone in their chow, vs control allografted mice receiving no treatment): the vasculature is protected
appearance of vasculature at days 10 and 12 (pirfenidone in chow, days 10 and 12 post-transplantation, FITC-lectin images (FIG. 2)): robust
time vasculature is preserved (pirfenidone-treated allografted mice (FIG. 3)): at least 12 days post-transplantation
tissue oxygenation (pO2): maintained tissue oxygenation at approximately the same levels throughout the time period shown
tissue oxygenation (pO2) (listed as pirfenidone): maintaining tissue oxygenation levels at the same levels through at least day 12
